Laboratory results from ChEMBL document CHEMBL1201862, “PubChem BioAssay data set” (2004).
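Five concentrations, 48 hours, 96-well plates. The concentration for 50% growth inhibition is given as GI50.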 Calls of active or inactive are those of the source. Cut-off read from the data, not from the text of the source: active = GI50 up to about 1.1 µM and inactive = higher.

How the values were obtained:
Assay in all cases: NCI tumour cell line growth inhibition, 48 h
[1] = tested on: DMS-273
[2] = tested on: SNB-78
[3] = tested on: HOP-18
[4] = tested on: DMS-114
[5] = tested on: XF498
[6] = tested on: M19-MEL
[7] = tested on: DLD-1
[8] = tested on: KM-20L2
[9] = tested on: RXF 631

SMILES	GI50 [1]	GI50 [2]	GI50 [3]	GI50 [4]	GI50 [5]	GI50 [6]	GI50 [7]	GI50 [8]	GI50 [9]
CCOC(=O)C(c1ccsc1)P(=O)(OCC)OCC (stereo unspecified)	13.2 µM (inactive)	12.6 µM (inactive)	28.3 µM (inactive)	13.8 µM (inactive)	20.9 µM (inactive)	11.2 µM (inactive)	12.8 µM (inactive)	14.5 µM (inactive)	–
COC(=O)CCC(=O)NC1C2CC3CC(C2)CC1C3 (stereo unspecified)	> 100 µM (inactive)	–	> 100 µM (inactive)	> 100 µM (inactive)	> 100 µM (inactive)	> 100 µM (inactive)	> 100 µM (inactive)	> 100 µM (inactive)	> 100 µM (inactive)
COc1ncnc2c(NC3OC(CO)C(O)C3O)ncnc12 (stereo unspecified)	0.152 µM (active)	0.668 µM (active)	< 0.01 µM (active)	0.213 µM (active)	0.902 µM (active)	–	0.306 µM (active)	0.407 µM (active)	0.3 µM (active)
Clc1ccc(-c2nnc3c4nnc(-c5ccc(Cl)cc5Cl)n4c4ccccc4n23)c(Cl)c1	> 100 µM (inactive)	34.4 µM (inactive)	–	> 100 µM (inactive)	> 100 µM (inactive)	> 100 µM (inactive)	> 100 µM (inactive)	> 100 µM (inactive)	–
COC(=O)/C(=N\NC(N)=O)C(C#N)c1ccccc1 (stereo unspecified)	–	> 100 µM (inactive)	> 100 µM (inactive)	> 100 µM (inactive)	75.5 µM (inactive)	> 100 µM (inactive)	> 100 µM (inactive)	> 100 µM (inactive)	–
Cc1c2ccccc2cc2ccc3oc([N+](=O)[O-])cc3c12	> 100 µM (inactive)	> 100 µM (inactive)	2 µM (inactive)	> 100 µM (inactive)	> 100 µM (inactive)	> 100 µM (inactive)	> 100 µM (inactive)	> 100 µM (inactive)	–
CC(C)=CCC/C(C)=C/Cc1c(O)c(C)cc2c1[nH]c1cc(O)ccc12	> 25 µM (inactive)	> 25 µM (inactive)	–	> 25 µM (inactive)	–	> 25 µM (inactive)	> 25 µM (inactive)	> 25 µM (inactive)	–
N#CC(C(=O)C(=O)Nc1ccc(Cl)cc1)c1ccccc1 (stereo unspecified)	> 100 µM (inactive)	> 100 µM (inactive)	> 100 µM (inactive)	> 100 µM (inactive)	–	> 100 µM (inactive)	> 100 µM (inactive)	> 100 µM (inactive)	> 100 µM (inactive)
COc1ccc(/C=C2\N=C(c3ccccc3)OC2=O)c(OCc2ccccc2)c1	32.3 µM (inactive)	–	> 100 µM (inactive)	31.1 µM (inactive)	–	38.3 µM (inactive)	17.7 µM (inactive)	> 100 µM (inactive)	–
O=C(Cc1nc2ccccc2o1)C(=O)Nc1cccc(Cl)c1	–	> 100 µM (inactive)	> 100 µM (inactive)	> 100 µM (inactive)	> 100 µM (inactive)	> 100 µM (inactive)	> 100 µM (inactive)	> 100 µM (inactive)	–
CC1(C)CC(=O)C(/C(=N/NC(=S)NN)C(=O)Nc2nc3ccc([N+](=O)[O-])cc3s2)C(=O)C1	–	> 100 µM (inactive)	76.7 µM (inactive)	> 100 µM (inactive)	> 100 µM (inactive)	> 100 µM (inactive)	> 100 µM (inactive)	> 100 µM (inactive)	–
Cc1nc(=O)n2c(C)n[nH]c2c1C(=O)O	–	> 100 µM (inactive)	–	> 100 µM (inactive)	> 100 µM (inactive)	> 100 µM (inactive)	> 100 µM (inactive)	–	–
O=C(C/C(=N\NC(=O)C[n+]1ccccc1)C(=O)Nc1nc2ccc([N+](=O)[O-])cc2s1)CC(c1ccccc1)c1c(O)c2ccccc2oc1=O (stereo unspecified)	–	–	–	> 100 µM (inactive)	–	> 100 µM (inactive)	> 100 µM (inactive)	> 100 µM (inactive)	–
CC1=C(C(=O)Nc2cc(F)c(F)cc2F)C(c2ccc([N+](=O)[O-])cc2)C(C(=O)Nc2cc(F)c(F)cc2F)=C(C)N1	–	26.1 µM (inactive)	–	15.3 µM (inactive)	–	57.7 µM (inactive)	30.5 µM (inactive)	37.9 µM (inactive)	–
Cc1ccc(C(=O)CC2(O)C(=O)Nc3c(C)cc(Cl)cc32)cc1 (stereo unspecified)	> 100 µM (inactive)	> 100 µM (inactive)	> 100 µM (inactive)	52.1 µM (inactive)	> 100 µM (inactive)	–	> 100 µM (inactive)	> 100 µM (inactive)	> 100 µM (inactive)
O=C1CCC(=O)C12CCc1ccccc12	> 100 µM (inactive)	–	> 100 µM (inactive)	> 100 µM (inactive)	> 100 µM (inactive)	> 100 µM (inactive)	> 100 µM (inactive)	> 100 µM (inactive)	> 100 µM (inactive)
CCOC(=O)C(Cc1c(C=O)[nH]c2ccccc12)(NC(=O)c1ccccc1)C(=O)OCC	–	–	> 10 µM (inactive)	19.8 µM (inactive)	16.4 µM (inactive)	16 µM (inactive)	7.93 µM (inactive)	–	–
c1ccc(CSc2nc3ccccc3nc2-c2cccs2)cc1	> 100 µM (inactive)	> 100 µM (inactive)	> 100 µM (inactive)	> 100 µM (inactive)	> 100 µM (inactive)	> 100 µM (inactive)	> 100 µM (inactive)	–	–
Brc1ccc2c(C3CN[C@@H](c4c[nH]c5cc(Br)ccc45)CN3)c[nH]c2c1 (stereo partly specified)	2.26 µM (inactive)	10.4 µM (inactive)	11.9 µM (inactive)	1.95 µM (inactive)	6.84 µM (inactive)	6.78 µM (inactive)	3.03 µM (inactive)	1.98 µM (inactive)	2.67 µM (inactive)
COC(=O)C1=Cc2cc3c(cc2[C@H](c2ccc4c(c2)OCO4)C1C(=O)OC)OCO3 (stereo partly specified)	> 100 µM (inactive)	> 100 µM (inactive)	> 100 µM (inactive)	> 100 µM (inactive)	> 100 µM (inactive)	> 100 µM (inactive)	54.5 µM (inactive)	> 100 µM (inactive)	–
CCCCCCCCCCCC[C@@H](O)[C@H]1CC[C@H]([C@H](O)CCCC[C@H](O)CCCCC[C@@H](O)CC2=C[C@H](C)OC2=O)O1	1.57 µM (inactive)	3.95 µM (inactive)	3.23 µM (inactive)	< 0.01 µM (active)	–	1.69 µM (inactive)	2.67 µM (inactive)	2.19 µM (inactive)	–
